# Measured values reported in patent US12577247B2 (BUGWORKS RESEARCH, INC., priority 2021, dated 2026).
# Where two headings read alike, the source gives them in different places.
# What was measured:
# hERG potassium channel = target: T1, hERG potassium channel (Homo sapiens, UniProt Q12809); assay: hERG inhibition assay, Qpatch HTX automated electrophysiology; type: cell-based; conditions: CHO cell line stably expressing hERG; whole-cell patch clamp; room temperature
# T1 construct: a Chinese Hamster Ovary cell line stably expressing the full-length hERG potassium channel; expressed in transfected cells; host or cells: Chinese Hamster Ovary cell line
# T1 sequence (Q12809 whole entry): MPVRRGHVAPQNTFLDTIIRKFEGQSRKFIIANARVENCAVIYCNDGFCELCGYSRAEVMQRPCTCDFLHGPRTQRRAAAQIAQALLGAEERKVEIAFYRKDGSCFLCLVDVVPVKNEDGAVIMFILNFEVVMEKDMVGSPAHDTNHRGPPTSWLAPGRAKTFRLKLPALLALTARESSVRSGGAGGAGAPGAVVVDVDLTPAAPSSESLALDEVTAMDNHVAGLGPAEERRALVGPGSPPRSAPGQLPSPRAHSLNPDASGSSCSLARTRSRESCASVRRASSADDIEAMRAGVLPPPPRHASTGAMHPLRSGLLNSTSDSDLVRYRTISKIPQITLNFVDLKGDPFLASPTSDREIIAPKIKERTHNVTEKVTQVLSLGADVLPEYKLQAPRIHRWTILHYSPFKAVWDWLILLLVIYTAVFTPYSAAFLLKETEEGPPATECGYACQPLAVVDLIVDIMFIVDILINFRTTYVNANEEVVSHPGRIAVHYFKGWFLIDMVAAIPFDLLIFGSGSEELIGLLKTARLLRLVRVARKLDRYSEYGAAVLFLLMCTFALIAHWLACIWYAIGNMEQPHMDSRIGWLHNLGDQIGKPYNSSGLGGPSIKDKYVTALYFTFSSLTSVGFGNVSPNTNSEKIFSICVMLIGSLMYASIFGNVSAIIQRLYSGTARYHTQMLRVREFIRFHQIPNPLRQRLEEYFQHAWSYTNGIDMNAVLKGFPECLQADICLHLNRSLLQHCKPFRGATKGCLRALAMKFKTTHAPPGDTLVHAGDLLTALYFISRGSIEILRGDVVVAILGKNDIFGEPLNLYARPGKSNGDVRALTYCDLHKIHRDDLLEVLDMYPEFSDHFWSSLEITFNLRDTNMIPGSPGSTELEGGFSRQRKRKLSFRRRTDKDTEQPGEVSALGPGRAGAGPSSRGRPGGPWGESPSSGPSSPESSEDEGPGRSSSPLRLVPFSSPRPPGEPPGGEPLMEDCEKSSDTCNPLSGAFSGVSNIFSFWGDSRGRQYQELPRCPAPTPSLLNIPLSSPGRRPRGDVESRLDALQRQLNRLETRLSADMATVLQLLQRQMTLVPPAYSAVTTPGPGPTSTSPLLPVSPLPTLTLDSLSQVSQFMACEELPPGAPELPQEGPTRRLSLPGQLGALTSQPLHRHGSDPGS
# Protocol: The representative compounds of formula I were tested for inhibition of the human ether a go-go related gene (hERG) K+ channel using Qpatch HTX automated electrophysiology. 6-Point concentration-response curves were generated using three-fold serial dilutions from a maximum final test concentration of […] and the results are presented in Table 3.
# Compounds were solubilised to 100 mM in DMSO before dilution in HBPS to 100 μM. […] Electrophysiological recordings were made from a Chinese Hamster Ovary cell line stably expressing the full-length hERG potassium channel. Single cell ionic currents were measured in whole-cell patch clamp configuration at room temperature (21-23° C.) using the Qpatch HTX platform (Sophion). Intracellular solution contained (mM): 120 KF, 20 KCl, 10 EGTA, 10 HEPES and was buffered to pH 7.3. […] Cells were clamped at a holding potential of −80 mV. Cells were stepped to +20 mV for 2 s then −40 mV for 3 s before returning to the holding potential. This sweep was repeated 10 times at 10 s intervals. hERG currents were measured from the tail step and referenced to the holding current. Compounds were then incubated for 2 minutes prior to a second measurement of ion channel current using an identical pulse train.
# [1] = Cell based permeability/efflux Caco-2 assay; type: in vitro ADME; conditions: human, Caco-2, 10 μM; for Papp A→B at 120 min, 10 µM: apical to basolateral; for Papp B→A at 120 min, 10 µM: basolateral to apical
# Protocol: Briefly, Permeability in a Caco-2 monolayer was determined at 10 μM. High density Caco-2 cells were obtained with fluent monolayer with trans epithelial electrical resistance (TEER) values greater than 350 ohm·cm^2 in the assay at 21 days of culture in 24 or 96 well insert plates. TEER was measured both before and after performing all the transport experiments. […] Transport buffer, 800 μL Hanks balanced salt sodium (HBSS) (pH 7.4) consisting of 10 mM HEPES without proteins was first dispensed to the basal side of the monolayer. The assay was then initiated by adding 200 μL, of compound solution to the apical side (all test compounds were diluted in HBSS, pH 6.5, with 1% DMSO as co-solvent). Two μL and 200 μL of samples were withdrawn before and at 45- and 120-min post addition of test compound, from the apical donor compartment and the base lateral receiver compartment, respectively. The transwell plates were kept for 120 min of incubation time at 37° C., 5% CO2, 95% relative humidity. At the end of incubation, sample solutions from both donor and receiver wells were mixed with acetonitrile containing internal standard (IS) immediately. Samples were analyzed including starting dosing solution, donor solution, and receiver solution by LC/MS/MS (API-4500). Concentrations of test compound was expressed as area ratio of analytes versus internal standard (IS).
# A passive permeability was determined by complete chemical inhibition of the three major efflux transporters, ABCB1 (P-gp), ABCG2 (BCRP) and […] in Caco-2 cells using a cocktail of chemical inhibitors quinidine (P-gp), sulfasalazine (BCRP) and benzbromarone (MRP2)
# The mean apparent permeability (Papp, X 10^−[…]) is calculated as follows
# [formula] Where dq/dt=rate of transport (rate of transport of compound in the receiver compartment), Co=initial concentration in the donor compartment, A=surface area of the effective filter membrane. Plot the cumulative amount of transported drug against time to obtain rate transport. The percent recovery was calculated using the following equation
# Rat hepatocytes = assay: Metabolic stability and intrinsic clearance in rat hepatocytes (with IVIVE); type: in vitro ADME; conditions: Rat; for Predicted CLh: IVIVE from hepatocyte CLint; for Hepatocyte Clint: Table 6 (IVIVE)
# Protocol: (§1) The metabolic stability was expressed as the percentage of parent remaining is calculated from the peak area ratio of NCE remaining after incubation (tx) compared to the time zero (t0) incubation. The percentage of parent test compound remaining at each time point was calculated by comparing the peak area ratio of test compound after incubation (tx) with peak area of time zero (t0) incubation. Similarly, half-life (t½) was calculated using following equation:
# (§2) [formula] The intrinsic clearance (Clint) was calculated using the following equations:
# (§3) [formula] Scaling factors to represent […] million cells/gm liver and liver/kg body wt.
# [2] = as above; type: in vitro ADME; conditions: Rat hepatocytes
# Protocol: as §1, §2, §3
# [3] = Pharmacokinetic study in mice; type: in vivo, CD1 mice; conditions: for Cmax / Tmax: po
# Protocol: Intravenous (i.v) and Oral formulations for pharmacokinetic (PK) studies was formulated in different vehicles and excipients to achieve the desirable solubility for intravenous and Oral routes of administration.
# Appropriate amount of the test compound was weighed and dissolved in required volume of the vehicles, followed by vertexing for a few seconds to dissolve the compound. Then the solution (or) suspension was sonicated at room temperature for 5 minutes to obtain a visually clear solution and or homogenous suspension. All the formulations were prepared freshly at room temperature before dosing.
# The rodent pharmacokinetic studies were carried out in male Sprague-Dawley (SD) rats (8-12 weeks of age, weighing 280±20 g at the time of dosing) and CD1 mice (8-12 weeks of age, weighing 30-35 g body weight at the time of dosing) to estimate the plasma clearance, volume of distribution and terminal half-life, area under curve (AUC) and peak plasma concentration (Cmax) and time of peak plasma concentration (Tmax) following intravenous and oral routes of administration. The detailed experimental design is described in the Table 8 below.
# Rats were anaesthetized by Isoflurane anaesthesia. The jugular and femoral veins of rat were cannulated, and the study was performed 48 h post cannulation. At each time point about 100 μL, of rat blood was collected from the jugular vein into a labelled microfuge tube containing 200 mM K2EDTA solution (20 μL, per mL of blood) and equivalent volume of heparinized saline was replaced following sample collection. Similarly, 25 μL, of mice blood was collected from the saphenous vein into a labelled microfuge tube containing 200 mM K2EDTA solution
# Serial blood sampling method was used for blood collection. Blood samples were collected at pre-dose, 0.25 h, 0.5, 1, 2, 4, 6, 8 and 24-hours post dose. The blood samples were processed to obtain the plasma samples within 30 min of scheduled sampling time. All plasma samples were stored −70° C. until bioanalysis.
# Plasma samples were analysed for a fit-for purpose LC-MS/MS method with a lower limit of quantification. The pharmacokinetic parameters were calculated using the non-compartmental analysis tool of validated Phoenix® WinNonlin® software (Certara, USA version 8.4) with linear up and log down method for estimating AUC.
# All animals in intravenous (IV bolus) group were under fed state and animals in oral groups were fasted overnight (min 12 hr) before dose administration and food was provided 4 h post dose administration. All animals were received water ad libitum during the study period. The mean (±SD) pharmacokinetic parameters of Example 13, Example 122b & Example 39 following IV bolus and Oral dose administration in Mice/Rat and Dog is provided in Table-9.
# [4] = CD1, mouse, plasma, 30 mg/kg, p.o, 30 mg/kg, read-out: Cmax (head Co*/)
# [5] = CD1, mouse, plasma, 30 mg/kg, p.o, 30 mg/kg, read-out: Tmax (head Tma)
# [6] = CD1, mouse, plasma, iv, i.v, 15 mg/kg
SMILES,IC50 (hERG potassium channel) [µM],"Papp A→B at 120 min, 10 µM [1] [×10⁻⁶ cm/s]","Papp B→A at 120 min, 10 µM [1] [×10⁻⁶ cm/s]",Predicted CLh (Rat hepatocytes) [mL/min/kg],Hepatocyte Clint (Rat hepatocytes) [μl/min/10^6],hepatocyte CLint at 0.5 μM [2] [µL/min/1e6 cells],"Cmax [3, 4] [ng/mL]","Tmax [3, 5] [min]","clearance [3, 6] [mL/min/kg]","half-life [3, 6] [min]","Vd ([3]; CD1, mouse, plasma, iv, i.v, 15 mg/kg, read-out: Vss) [L/kg]","bioavailability ([3]; CD1, mouse, plasma, oral 30 mg/kg vs IV bolus 15 mg/kg, read-out: % F (bioavailability)) [%]","Co (head Co*/) ([3]; i.v, 15 mg/kg) [ng/m]","Oral exposure in mice ([3]; oral, compared with Example 13)","AUC(0-t) ([3]; CD1, mouse, plasma, 100 mg/kg oral) [ng·h/mL]","Cmax ([3]; CD1, mouse, plasma, 100 mg/kg, 100 mg/kg oral, read-out: C. (Cmax)) [ng/mL]","Tmax ([3]; CD1, mouse, plasma, 100 mg/kg, 100 mg/kg oral, read-out: Tmax) [min]","Cmax ([3]; CD1, mouse, plasma, 100 mg/kg, p.o, 100 mg/kg, read-out: Cmax (head Co*/)) [ng/mL]","Tmax ([3]; CD1, mouse, plasma, 100 mg/kg, p.o, 100 mg/kg, read-out: Tmax (head Tma)) [min]"
"Cc1cccc(CCNc2nc3c(C)c(C)nn3c(N)c2C#N)n1 [Example 13, 7-amino-5-((2-(6-methylpyridin-2-yl)ethyl)amino)-2,3-dimethylpyrazolo[1,5-a]pyrimidine-6-carbonitrile]",> 100,58,19.5,41,34,34,236,12,,,,,,,,,,,
"CCc1c(C)nn2c(N)c(C#N)c(NCCc3ccn(C4(CO)CC4)n3)nc12 [Example 39, 7-amino-3-ethyl-5-((2-(1-(1-(hydroxymethyl)cyclopropyl)-1H-pyrazol-3-yl)ethyl)amino)-2-methylpyrazolo[1,5-a] pyrimidine-6-carbonitrile]",> 100,18.4,18.5,23,<8.2,< 8.2,3300,12,58 ± 14,54,1,15,2236,High oral exposure,,,,,
"CCc1c(C)nn2c(N)c(C#N)c(NCCc3ccn(C4COCC4CO)n3)nc12 (single isomer, unassigned; (-)) [Example 122b, (−)-7-amino-3-ethyl-5-((2-(1-(4-(hydroxymethyl)tetrahydrofuran-3-yl)-1H-pyrazol-3-yl)ethyl)amino)-2-methyl pyrazolo[1,5-a]pyrimidine-6-carbonitrile]",> 100,14.4,15.9,16,4.7,4.7,,,,,,,,,10500,13800,15,13800,12
